The target of the experiment is T1, Recombinant human p70S6K kinase (Homo sapiens, UniProt P23443).
T1 construct: purchased ThermoFisher Scientific PV3815
The experiment in a line: S6K Enzymatic Inhibition Assay (HotSpot kinase assay; called S6K binding assay in Table 2). It counts as biochemical. Particulars: IC50 class. How it is done: Enzymatic activity was determined using a commercial HotSpot kinase assay. Recombinant human p70S6K kinase was purchased from ThermoFisher Scientific (cat #PV3815). The substrate S6K/RSK2 peptide 2 was synthesized at Genscript [Piscataway, NJ]. In brief, the substrate was prepared in the reaction buffer [20 mM Hepes (pH 7.5), 10 mM MgCl2, 1 mM EGTA, 0.02% Brij35, 0.02 mg/mL BSA, 0.1 mM Na3VO4, 2 mM DTT, 1% DMSO]. Testing compounds were dissolved in 100% DMSO and a serial dilution was conducted in DMSO. The kinase at final concentration of 3 nM was added into the substrate solution and gently mixed. Test compounds were delivered at the appropriate concentrations into the kinase reaction mixture by Echo550, and incubated for 20 minutes at room temperature. ^33P-ATP (Specific activity 10 μCi/μL) was added into the reaction mixture to initiate the reaction. Assay plates were incubated for 2 hours at room temperature. The radioactivity was detected by filter-binding method. Kinase activity data is expressed as the percent remaining kinase activity in test samples compared to vehicle (DMSO) reactions. IC50 curves were plotted and IC50 values were calculated using the GraphPad Prism 4 program based on a sigmoidal dose-response equation.

pIC50: −log10 of the molar value. Bounds are passed on as bounds.

T1 sequence (P23443 whole entry): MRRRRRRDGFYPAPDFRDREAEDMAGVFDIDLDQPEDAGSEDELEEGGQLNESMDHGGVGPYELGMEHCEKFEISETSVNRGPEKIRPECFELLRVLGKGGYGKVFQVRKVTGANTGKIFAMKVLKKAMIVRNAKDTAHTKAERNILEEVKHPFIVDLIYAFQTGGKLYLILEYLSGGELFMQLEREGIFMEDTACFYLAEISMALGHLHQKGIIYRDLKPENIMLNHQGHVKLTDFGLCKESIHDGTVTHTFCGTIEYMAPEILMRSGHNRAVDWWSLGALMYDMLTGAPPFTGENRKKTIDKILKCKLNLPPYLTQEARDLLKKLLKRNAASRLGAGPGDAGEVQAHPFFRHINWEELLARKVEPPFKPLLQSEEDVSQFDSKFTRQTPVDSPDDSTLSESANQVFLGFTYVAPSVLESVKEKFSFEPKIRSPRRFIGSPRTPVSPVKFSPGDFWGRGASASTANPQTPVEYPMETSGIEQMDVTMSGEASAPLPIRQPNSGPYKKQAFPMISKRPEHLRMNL

In general, pIC50 refers to the IC50 on a negative log10 scale, so that one unit is a factor of ten. On to `Nc1ncnc(-c2cnn(Cc3ccc(C(F)(F)F)cc3)c2)c1-c1ccc2c(c1)OC(F)(F)O2` [Example 35, 5-(2,2-Difluoro-2H-1,3-benzodioxol-5-yl)-6-(1-{[p-(trifluoromethyl)phenyl]methyl}-1H-pyrazol-4-yl)-4-pyrimidinylamine], for which the pIC50 is 5.00 to 6.30. Turning to `Nc1cc(-c2cnn(Cc3ccc(C(F)(F)F)cc3)c2)ccn1` [Example 36, 4-(1-{[p-(Trifluoromethyl)phenyl]methyl}-1H-pyrazol-4-yl)-2-pyridylamine], the pIC50 is 5.00 to 6.30.

`Nc1cc(-c2cnn(Cc3ccc(C(F)(F)F)cc3)c2)c(Cl)cn1` [Example 37, 5-Chloro-4-(1-{[p-(trifluoromethyl)phenyl]methyl}-1H-pyrazol-4-yl)-2-pyridylamine]: the negative logarithm of the IC50 (pIC50) is 5.00 to 6.30. With `COc1ccc(-c2c(-c3cnn(Cc4ccc(C(F)(F)F)cc4)c3)ccnc2N)cc1` [Example 38, 3-(p-Methoxyphenyl)-4-(1-{[p-(trifluoromethyl)phenyl]methyl}-1H-pyrazol-4-yl)-2-pyridylamine], the pIC50 is greater than 7.30. The figure for `Nc1nccc(-c2cnn(Cc3ccc(C(F)(F)F)cc3)c2)c1-c1ccc(Cl)cc1` [Example 39, 3-(p-Chlorophenyl)-4-(1-{[p-(trifluoromethyl)phenyl]methyl}-1H-pyrazol-4-yl)-2-pyridylamine] is greater than 7.30.

For the origin of these results see patent publication US12234224B2, “Pyrimidine and pyridine amine compounds and usage thereof in disease treatment” (Epigen Biosciences, Inc., priority 2021, dated 2025).
